Source: ChEMBL document CHEMBL1150036, “Functionalized aliphatic P2/P2 analogs of HIV-1 protease inhibitor DMP323” (Bioorg Med Chem Lett, 1997)
The source made the active and inactive calls. The rule behind the calls is not given here.

Experiments:
[1] = test system: Human immunodeficiency virus 1; assay: Inhibition of viral RNA production in HIV-1-infected MT-2 cells.; format: functional; conditions: Human immunodeficiency virus 1, MT2
[2] = target: Human immunodeficiency virus type 1 protease (Human immunodeficiency virus 1, UniProt Q72874); assay: Inhibitory activity against HIV-1 protease
[3] = test system: MT2; assay: Antiviral activity assessed in a cell based assay measuring the inhibition of viral RNA production in HIV-1-infected MT-2 cells at concentrations of up to 50 ug/mL; not active; format: functional; conditions: Homo sapiens

SMILES	IC90 [1] [nM]	Ki [2] [nM]	IC90 [3]
O=C1N(CCCCO)[C@H](Cc2ccccc2)[C@H](O)[C@@H](O)[C@@H](Cc2ccccc2)N1CCCCO	22700	42	
O=C(NCCCCCN1C(=O)N(CCCCCNC(=O)c2ccccc2)[C@H](Cc2ccccc2)[C@H](O)[C@@H](O)[C@H]1Cc1ccccc1)c1ccccc1		59	inactive
O=C1N(CCCCCO)[C@H](Cc2ccccc2)[C@H](O)[C@@H](O)[C@@H](Cc2ccccc2)N1Cc1ccc2ccccc2c1	199	0.24	
COCCCCCN1C(=O)N(CCCCCOC)[C@H](Cc2ccccc2)[C@H](O)[C@@H](O)[C@H]1Cc1ccccc1		96	inactive
O=C(O)CCCCCN1C(=O)N(CCCCCC(=O)O)[C@H](Cc2ccccc2)[C@H](O)[C@@H](O)[C@H]1Cc1ccccc1		0.24	inactive
CS(=O)(=O)NCCCCCN1C(=O)N(CCCCCNS(C)(=O)=O)[C@H](Cc2ccccc2)[C@H](O)[C@@H](O)[C@H]1Cc1ccccc1		270	inactive
O=C1N(CCCO)[C@H](Cc2ccccc2)[C@H](O)[C@@H](O)[C@@H](Cc2ccccc2)N1CCCO		51	inactive
O=C(NCCCCCN1C(=O)N(CCCCCNC(=O)c2cccc(F)c2)[C@H](Cc2ccccc2)[C@H](O)[C@@H](O)[C@H]1Cc1ccccc1)c1cccc(F)c1	8770	14	
O=C1N(CCCCCO)[C@H](Cc2ccccc2)[C@H](O)[C@@H](O)[C@@H](Cc2ccccc2)N1Cc1cccc(CO)c1	76	0.058	
CC(=O)NCCCCCN1C(=O)N(CCCCCNC(C)=O)[C@H](Cc2ccccc2)[C@H](O)[C@@H](O)[C@H]1Cc1ccccc1		350	inactive
O=C1N(CCCCCO)[C@H](Cc2ccccc2)[C@H](O)[C@@H](O)[C@@H](Cc2ccccc2)N1CCCCCO	953	1.4	
NCCCCN1C(=O)N(CCCCN)[C@H](Cc2ccccc2)[C@H](O)[C@@H](O)[C@H]1Cc1ccccc1		1250	inactive
O=C1N(CCCCCCO)[C@H](Cc2ccccc2)[C@H](O)[C@@H](O)[C@@H](Cc2ccccc2)N1CCCCCCO	1510	0.47	
O=C1N(CCCCCCCO)[C@H](Cc2ccccc2)[C@H](O)[C@@H](O)[C@@H](Cc2ccccc2)N1CCCCCCCO	9010	34	
O=C1N(CCCCCCO)[C@H](Cc2ccccc2)[C@H](O)[C@@H](O)[C@@H](Cc2ccccc2)N1Cc1ccc2ccccc2c1	264	1.7	
NCCCCCN1C(=O)N(CCCCCN)[C@H](Cc2ccccc2)[C@H](O)[C@@H](O)[C@H]1Cc1ccccc1		1250	inactive
O=C(NCCCCCN1C(=O)N(CCCCCNC(=O)c2ccc(F)cc2)[C@H](Cc2ccccc2)[C@H](O)[C@@H](O)[C@H]1Cc1ccccc1)c1ccc(F)cc1		18	inactive
CNC(=O)NCCCCCN1C(=O)N(CCCCCNC(=O)NC)[C@H](Cc2ccccc2)[C@H](O)[C@@H](O)[C@H]1Cc1ccccc1		270	inactive
O=C(Cc1cccnc1)NCCCCCN1C(=O)N(CCCCCNC(=O)Cc2cccnc2)[C@H](Cc2ccccc2)[C@H](O)[C@@H](O)[C@H]1Cc1ccccc1	3130	8.9	
O=C1N(CCCCCO)[C@H](Cc2ccccc2)[C@H](O)[C@@H](O)[C@@H](Cc2ccccc2)N1Cc1cccc(O)c1	36	0.081	
O=C(NCCCCCN1C(=O)N(CCCCCNC(=O)c2ccncc2)[C@H](Cc2ccccc2)[C@H](O)[C@@H](O)[C@H]1Cc1ccccc1)c1ccncc1	9900	16	
O=C1N(CCCCCO)[C@H](Cc2ccccc2)[C@H](O)[C@@H](O)[C@@H](Cc2ccccc2)N1CC1CC1	814	0.99	
O=C1N(CCCCCO)[C@H](Cc2ccccc2)[C@H](O)[C@@H](O)[C@@H](Cc2ccccc2)N1Cc1ccccc1	398	0.68	
COC(=O)CCCCCN1C(=O)N(CCCCCC(=O)OC)[C@H](Cc2ccccc2)[C@H](O)[C@@H](O)[C@H]1Cc1ccccc1	30900	29	
O=C1N(CCCCCCCCO)[C@H](Cc2ccccc2)[C@H](O)[C@@H](O)[C@@H](Cc2ccccc2)N1CCCCCCCCO	17200	500	
O=C1N(CCCCCO)[C@H](Cc2ccccc2)[C@H](O)[C@@H](O)[C@@H](Cc2ccccc2)N1Cc1ccc(CO)cc1	108	0.1	
CCOC(=O)c1cccc(CN2C(=O)N(CCCCCO)[C@H](Cc3ccccc3)[C@H](O)[C@@H](O)[C@H]2Cc2ccccc2)c1	365	0.72	
